Holding throughout (test): biochemical
Holding throughout (assay type): biochemical

The target in assay [1] is T1, 382 unique human kinases (Homo sapiens, UniProt Q9Y2K2).
T1 construct: purchased Reaction Biology (HotSpot contract assay)
To be noted: SIK3, 10 uM; for remaining activity at 10 µM: read-out: % Enzyme Activity (relative to DMSO controls).

For assay [2], the target named is T2, 382 unique human kinases (Homo sapiens, UniProt Q8TD19).
T2 construct: purchased Reaction Biology (HotSpot contract assay)
T2 sequence (Q8TD19 1-979): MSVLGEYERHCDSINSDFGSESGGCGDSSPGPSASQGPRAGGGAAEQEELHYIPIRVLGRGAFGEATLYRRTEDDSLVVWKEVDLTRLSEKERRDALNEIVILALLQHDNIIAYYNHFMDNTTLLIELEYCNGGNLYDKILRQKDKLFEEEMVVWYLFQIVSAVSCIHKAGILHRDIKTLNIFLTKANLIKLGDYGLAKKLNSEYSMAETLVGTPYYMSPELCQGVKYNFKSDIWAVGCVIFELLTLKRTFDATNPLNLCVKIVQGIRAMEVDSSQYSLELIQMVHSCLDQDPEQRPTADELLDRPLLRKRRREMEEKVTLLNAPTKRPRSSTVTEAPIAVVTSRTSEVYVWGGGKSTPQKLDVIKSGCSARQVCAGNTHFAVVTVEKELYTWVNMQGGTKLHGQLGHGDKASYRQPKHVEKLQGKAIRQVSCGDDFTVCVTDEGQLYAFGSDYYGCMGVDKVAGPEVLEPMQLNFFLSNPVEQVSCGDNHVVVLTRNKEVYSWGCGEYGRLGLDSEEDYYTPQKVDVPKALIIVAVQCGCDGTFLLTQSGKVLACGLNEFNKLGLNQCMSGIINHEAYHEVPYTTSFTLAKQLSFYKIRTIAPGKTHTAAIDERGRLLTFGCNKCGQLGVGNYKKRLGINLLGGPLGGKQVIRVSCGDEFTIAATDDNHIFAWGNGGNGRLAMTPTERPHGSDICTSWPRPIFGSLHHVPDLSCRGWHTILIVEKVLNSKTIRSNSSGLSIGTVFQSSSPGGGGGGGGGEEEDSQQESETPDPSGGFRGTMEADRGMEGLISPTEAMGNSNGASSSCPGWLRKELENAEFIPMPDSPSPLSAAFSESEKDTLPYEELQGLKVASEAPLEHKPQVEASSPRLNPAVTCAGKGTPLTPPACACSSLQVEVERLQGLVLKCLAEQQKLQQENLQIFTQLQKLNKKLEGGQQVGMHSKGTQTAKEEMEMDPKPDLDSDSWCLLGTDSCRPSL
To be noted: NEK9, 10 uM; for remaining activity at 10 µM: read-out: % Enzyme Activity (relative to DMSO controls).

In assay [3] the target is T3, 382 unique human kinases (Homo sapiens, UniProt Q6DT37).
T3 construct: purchased Reaction Biology (HotSpot contract assay)
To be noted: DMPK2, 10 uM; for remaining activity at 10 µM: read-out: % Enzyme Activity (relative to DMSO controls).

For assay [4], the target named is T4, 382 unique human kinases (Homo sapiens, UniProt Q9BXA6).
T4 construct: purchased Reaction Biology (HotSpot contract assay)
The note with it: kinase SSTK/TSSK6, compound 10 uM; for remaining activity at 10 µM: read-out: % Enzyme Activity (relative to DMSO controls).

Assay [5] concerns the target T5, 382 unique human kinases (Homo sapiens, UniProt P29322).
T5 construct: purchased Reaction Biology (HotSpot contract assay)
T5 sequence (P29322 28-1005): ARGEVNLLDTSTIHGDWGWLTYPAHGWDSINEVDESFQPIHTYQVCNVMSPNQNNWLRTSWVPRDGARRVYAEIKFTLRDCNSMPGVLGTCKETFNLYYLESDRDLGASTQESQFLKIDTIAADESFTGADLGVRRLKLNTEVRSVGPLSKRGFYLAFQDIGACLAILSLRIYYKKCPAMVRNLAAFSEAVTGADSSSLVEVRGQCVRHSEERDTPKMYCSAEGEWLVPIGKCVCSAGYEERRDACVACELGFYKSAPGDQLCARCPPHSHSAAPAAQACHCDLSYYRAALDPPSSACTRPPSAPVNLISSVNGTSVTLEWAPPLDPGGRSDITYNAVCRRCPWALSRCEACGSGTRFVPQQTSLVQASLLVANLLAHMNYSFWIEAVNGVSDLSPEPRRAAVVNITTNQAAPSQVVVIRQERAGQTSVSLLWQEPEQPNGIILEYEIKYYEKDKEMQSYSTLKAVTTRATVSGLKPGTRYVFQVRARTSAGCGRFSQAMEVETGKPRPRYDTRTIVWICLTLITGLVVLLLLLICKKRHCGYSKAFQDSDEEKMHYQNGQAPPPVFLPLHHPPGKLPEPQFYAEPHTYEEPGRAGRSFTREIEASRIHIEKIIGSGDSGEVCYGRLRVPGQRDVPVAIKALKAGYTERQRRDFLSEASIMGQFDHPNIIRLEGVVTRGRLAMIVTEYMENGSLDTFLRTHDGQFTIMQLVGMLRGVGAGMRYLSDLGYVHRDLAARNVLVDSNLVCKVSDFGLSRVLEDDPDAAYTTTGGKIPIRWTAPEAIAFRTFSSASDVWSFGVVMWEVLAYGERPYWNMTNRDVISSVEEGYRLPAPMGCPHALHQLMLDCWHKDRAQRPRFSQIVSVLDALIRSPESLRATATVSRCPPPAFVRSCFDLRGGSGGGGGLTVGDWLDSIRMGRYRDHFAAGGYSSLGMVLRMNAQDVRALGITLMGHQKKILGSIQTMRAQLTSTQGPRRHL
The note with it: kinase EPHA8, compound 10 uM; for remaining activity at 10 µM: read-out: % Enzyme Activity (relative to DMSO controls).

Assay [6] deals with T6, 382 unique human kinases (Homo sapiens, UniProt O94804).
T6 construct: purchased Reaction Biology (HotSpot contract assay)
The note with it: LOK/STK10, 10 uM; for remaining activity at 10 µM: read-out: % Enzyme Activity (relative to DMSO controls).

The target of assay [7] is T7, 382 unique human kinases (Homo sapiens, UniProt Q9P0L2).
T7 construct: purchased Reaction Biology (HotSpot contract assay)
To be noted: MARK1, compound at 10 uM, duplicate values; for remaining activity at 10 µM: read-out: % Enzyme Activity (relative to DMSO controls).

Assay [8] addresses T8, 382 unique human kinases (Homo sapiens, UniProt Q9HBH9).
T8 construct: purchased Reaction Biology (HotSpot contract assay)
The note with it: kinase MNK2, compound 10 uM; for remaining activity at 10 µM: read-out: % Enzyme Activity (relative to DMSO controls).

Assay [9] has as its target T9, 382 unique human kinases (Homo sapiens, UniProt P51812, I416V).
T9 construct: purchased Reaction Biology (HotSpot contract assay)
The note with it: RSK2 (I416V), [ATP] 10 µM, compound 10 uM; for remaining activity at 10 µM: read-out: % Enzyme Activity (relative to DMSO controls).

Assay [10] addresses T10, 382 unique human kinases (Homo sapiens, UniProt O15075).
T10 construct: purchased Reaction Biology (HotSpot contract assay)
To be noted: DCAMKL1, 10 uM; for remaining activity at 10 µM: read-out: % Enzyme Activity (relative to DMSO controls).

Assay [11] deals with T11, 382 unique human kinases (Homo sapiens, UniProt P00519, H396P).
T11 construct: purchased Reaction Biology (HotSpot contract assay)
To be noted: ABL1 (H396P), [ATP] 15 µM, compound 10 uM; for remaining activity at 10 µM: read-out: % Enzyme Activity (relative to DMSO controls).

Assay [12] deals with T12, 382 unique human kinases (Homo sapiens, UniProt P10721, D816E).
T12 construct: purchased Reaction Biology (HotSpot contract assay)
To be noted: c-Kit (D816E), [ATP] 50 µM, compound 10 uM; for remaining activity at 10 µM: read-out: % Enzyme Activity (relative to DMSO controls).

Assay [13] has as its target T13, 382 unique human kinases (Homo sapiens, UniProt P49840).
T13 construct: purchased Reaction Biology (HotSpot contract assay)
The note with it: GSK3a, [ATP] 30 µM, compound 10 uM; for remaining activity at 10 µM: read-out: % Enzyme Activity (relative to DMSO controls).

T8 sequence (Q9HBH9 whole entry): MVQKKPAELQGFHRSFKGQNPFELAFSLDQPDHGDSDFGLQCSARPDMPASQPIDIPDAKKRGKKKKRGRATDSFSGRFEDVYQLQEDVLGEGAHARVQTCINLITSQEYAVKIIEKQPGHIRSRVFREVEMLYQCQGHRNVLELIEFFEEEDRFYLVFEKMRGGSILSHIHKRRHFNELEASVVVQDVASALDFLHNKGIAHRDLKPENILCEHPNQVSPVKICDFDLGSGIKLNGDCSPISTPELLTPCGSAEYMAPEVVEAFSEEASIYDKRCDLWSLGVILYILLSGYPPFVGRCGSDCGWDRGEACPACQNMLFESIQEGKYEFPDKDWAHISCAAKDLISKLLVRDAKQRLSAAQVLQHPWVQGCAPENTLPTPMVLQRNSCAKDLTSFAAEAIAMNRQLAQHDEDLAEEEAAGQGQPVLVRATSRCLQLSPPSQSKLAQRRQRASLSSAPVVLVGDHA
T1 sequence (Q9Y2K2 whole entry): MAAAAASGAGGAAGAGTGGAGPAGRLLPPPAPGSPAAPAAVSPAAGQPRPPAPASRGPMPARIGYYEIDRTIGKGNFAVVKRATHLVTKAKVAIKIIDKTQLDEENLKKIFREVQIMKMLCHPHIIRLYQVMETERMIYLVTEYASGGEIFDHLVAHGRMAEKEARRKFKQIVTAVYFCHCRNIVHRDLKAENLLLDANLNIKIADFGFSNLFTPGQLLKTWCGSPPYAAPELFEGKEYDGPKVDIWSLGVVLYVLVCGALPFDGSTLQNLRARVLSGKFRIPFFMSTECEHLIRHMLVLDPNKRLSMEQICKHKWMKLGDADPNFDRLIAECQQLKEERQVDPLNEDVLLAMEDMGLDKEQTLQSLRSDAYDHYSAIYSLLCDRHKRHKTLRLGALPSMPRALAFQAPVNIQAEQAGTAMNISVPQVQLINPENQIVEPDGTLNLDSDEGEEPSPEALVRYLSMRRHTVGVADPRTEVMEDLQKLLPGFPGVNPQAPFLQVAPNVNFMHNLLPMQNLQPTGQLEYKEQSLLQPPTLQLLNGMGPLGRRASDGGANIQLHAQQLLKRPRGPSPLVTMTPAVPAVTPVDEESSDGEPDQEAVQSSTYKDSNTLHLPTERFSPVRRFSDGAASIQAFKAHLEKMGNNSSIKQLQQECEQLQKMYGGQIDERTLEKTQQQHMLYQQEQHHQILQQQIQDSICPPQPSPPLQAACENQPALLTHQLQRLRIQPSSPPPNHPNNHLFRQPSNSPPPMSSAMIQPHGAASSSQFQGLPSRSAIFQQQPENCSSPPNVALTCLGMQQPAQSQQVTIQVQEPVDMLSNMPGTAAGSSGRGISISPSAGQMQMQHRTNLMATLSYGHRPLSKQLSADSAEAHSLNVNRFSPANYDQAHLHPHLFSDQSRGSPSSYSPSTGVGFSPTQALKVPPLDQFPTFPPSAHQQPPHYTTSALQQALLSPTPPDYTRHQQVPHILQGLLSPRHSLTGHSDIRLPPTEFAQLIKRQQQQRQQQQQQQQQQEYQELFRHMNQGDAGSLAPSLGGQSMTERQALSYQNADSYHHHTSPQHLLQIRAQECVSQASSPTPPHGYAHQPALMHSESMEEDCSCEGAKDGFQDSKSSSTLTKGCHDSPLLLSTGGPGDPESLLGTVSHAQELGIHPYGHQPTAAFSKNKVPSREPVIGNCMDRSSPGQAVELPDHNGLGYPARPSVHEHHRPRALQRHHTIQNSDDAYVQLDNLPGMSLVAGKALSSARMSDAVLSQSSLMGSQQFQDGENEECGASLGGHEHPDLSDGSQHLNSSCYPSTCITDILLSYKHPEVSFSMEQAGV
T3 sequence (Q6DT37 whole entry): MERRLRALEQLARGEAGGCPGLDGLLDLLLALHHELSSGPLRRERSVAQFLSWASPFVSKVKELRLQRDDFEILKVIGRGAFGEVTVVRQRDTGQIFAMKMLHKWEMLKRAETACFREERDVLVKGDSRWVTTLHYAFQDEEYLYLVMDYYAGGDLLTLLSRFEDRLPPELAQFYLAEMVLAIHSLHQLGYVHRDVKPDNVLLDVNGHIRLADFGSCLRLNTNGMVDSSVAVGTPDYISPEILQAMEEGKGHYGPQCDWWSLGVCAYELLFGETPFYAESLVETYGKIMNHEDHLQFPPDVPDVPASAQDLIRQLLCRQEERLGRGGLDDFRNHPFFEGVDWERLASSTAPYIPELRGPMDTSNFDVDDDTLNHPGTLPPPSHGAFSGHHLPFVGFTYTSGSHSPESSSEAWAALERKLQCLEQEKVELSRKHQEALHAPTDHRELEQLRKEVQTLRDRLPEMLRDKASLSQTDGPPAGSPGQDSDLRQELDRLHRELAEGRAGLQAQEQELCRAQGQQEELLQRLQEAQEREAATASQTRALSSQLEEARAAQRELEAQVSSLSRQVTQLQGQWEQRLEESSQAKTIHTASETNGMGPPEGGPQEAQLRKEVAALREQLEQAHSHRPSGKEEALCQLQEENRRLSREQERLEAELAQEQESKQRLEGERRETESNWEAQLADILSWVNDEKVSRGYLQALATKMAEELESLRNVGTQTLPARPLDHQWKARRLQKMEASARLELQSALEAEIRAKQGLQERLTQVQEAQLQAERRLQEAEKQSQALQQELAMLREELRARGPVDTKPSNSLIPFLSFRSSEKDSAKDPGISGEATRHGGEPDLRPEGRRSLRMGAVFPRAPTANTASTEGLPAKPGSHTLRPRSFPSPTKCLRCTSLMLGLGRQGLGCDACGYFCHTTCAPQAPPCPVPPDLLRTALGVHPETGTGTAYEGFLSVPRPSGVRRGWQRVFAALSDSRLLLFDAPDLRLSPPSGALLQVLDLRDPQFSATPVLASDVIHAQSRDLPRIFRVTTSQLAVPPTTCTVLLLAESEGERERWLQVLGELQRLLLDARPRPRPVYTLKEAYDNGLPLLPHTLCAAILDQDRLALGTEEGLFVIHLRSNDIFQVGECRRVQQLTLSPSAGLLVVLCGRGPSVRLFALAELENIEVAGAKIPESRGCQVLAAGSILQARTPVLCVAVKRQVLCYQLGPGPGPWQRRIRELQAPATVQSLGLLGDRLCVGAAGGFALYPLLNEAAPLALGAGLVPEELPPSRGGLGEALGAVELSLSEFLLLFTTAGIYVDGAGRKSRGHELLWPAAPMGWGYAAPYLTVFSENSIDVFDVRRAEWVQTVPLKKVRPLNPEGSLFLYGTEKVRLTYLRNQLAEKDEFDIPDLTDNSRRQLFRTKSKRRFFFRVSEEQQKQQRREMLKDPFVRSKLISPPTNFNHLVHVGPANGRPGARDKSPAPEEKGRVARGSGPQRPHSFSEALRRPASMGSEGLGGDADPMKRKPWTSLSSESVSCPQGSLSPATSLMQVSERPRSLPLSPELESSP
T12 sequence (P10721 26-976 D816E): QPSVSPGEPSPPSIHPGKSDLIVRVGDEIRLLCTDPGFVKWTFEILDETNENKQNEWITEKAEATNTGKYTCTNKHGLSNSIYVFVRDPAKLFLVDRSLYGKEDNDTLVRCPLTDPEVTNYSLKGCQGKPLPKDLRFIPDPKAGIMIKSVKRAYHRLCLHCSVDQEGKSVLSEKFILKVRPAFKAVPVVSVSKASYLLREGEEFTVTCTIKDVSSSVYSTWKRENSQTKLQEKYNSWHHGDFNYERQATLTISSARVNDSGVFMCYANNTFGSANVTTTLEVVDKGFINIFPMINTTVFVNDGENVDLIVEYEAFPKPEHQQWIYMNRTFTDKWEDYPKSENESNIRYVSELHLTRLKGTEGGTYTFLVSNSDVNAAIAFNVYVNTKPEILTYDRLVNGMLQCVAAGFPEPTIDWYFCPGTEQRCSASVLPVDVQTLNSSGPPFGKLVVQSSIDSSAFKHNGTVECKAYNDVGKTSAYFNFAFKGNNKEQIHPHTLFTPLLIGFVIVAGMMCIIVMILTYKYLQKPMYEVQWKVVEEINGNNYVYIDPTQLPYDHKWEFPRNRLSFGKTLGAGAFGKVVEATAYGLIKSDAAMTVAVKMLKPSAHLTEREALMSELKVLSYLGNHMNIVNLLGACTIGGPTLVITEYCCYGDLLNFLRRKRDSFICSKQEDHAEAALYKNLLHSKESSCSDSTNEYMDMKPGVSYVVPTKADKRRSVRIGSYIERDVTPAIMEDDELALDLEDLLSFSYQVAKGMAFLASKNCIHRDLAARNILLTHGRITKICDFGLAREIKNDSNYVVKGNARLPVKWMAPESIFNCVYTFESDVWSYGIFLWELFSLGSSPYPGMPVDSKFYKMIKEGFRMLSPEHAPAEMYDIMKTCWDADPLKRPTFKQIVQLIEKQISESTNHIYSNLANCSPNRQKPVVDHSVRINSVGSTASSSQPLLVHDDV
T13 sequence (P49840 whole entry): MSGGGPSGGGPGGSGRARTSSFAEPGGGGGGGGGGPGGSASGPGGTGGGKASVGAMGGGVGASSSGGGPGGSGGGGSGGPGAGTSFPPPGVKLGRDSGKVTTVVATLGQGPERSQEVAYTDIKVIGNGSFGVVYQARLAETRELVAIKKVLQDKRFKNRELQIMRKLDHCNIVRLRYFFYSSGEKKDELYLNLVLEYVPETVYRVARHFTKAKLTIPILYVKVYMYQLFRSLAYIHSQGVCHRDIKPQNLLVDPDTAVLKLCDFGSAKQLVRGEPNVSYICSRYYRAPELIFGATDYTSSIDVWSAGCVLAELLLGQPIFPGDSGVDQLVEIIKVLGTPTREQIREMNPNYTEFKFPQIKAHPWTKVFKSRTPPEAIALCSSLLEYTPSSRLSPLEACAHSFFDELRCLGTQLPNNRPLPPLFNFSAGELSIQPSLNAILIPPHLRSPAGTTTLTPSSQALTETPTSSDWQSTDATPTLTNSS
T4 sequence (Q9BXA6 whole entry): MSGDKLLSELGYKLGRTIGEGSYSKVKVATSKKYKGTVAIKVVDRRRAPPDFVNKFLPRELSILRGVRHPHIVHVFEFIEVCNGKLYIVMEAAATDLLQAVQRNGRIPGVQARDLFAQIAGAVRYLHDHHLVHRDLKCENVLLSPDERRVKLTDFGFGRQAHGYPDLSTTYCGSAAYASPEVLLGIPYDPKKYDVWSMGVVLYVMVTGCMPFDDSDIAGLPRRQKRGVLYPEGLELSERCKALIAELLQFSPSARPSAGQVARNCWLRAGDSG

`CC(C)c1cc(-c2n[nH]c(=O)n2-c2ccc3c(ccn3C)c2)c(O)cc1O` [Ganetespib (STA9090)]: the remaining activity at 10 µM in [1] was determined as 78.3%; in assay [2], 62.5%; in assay [3], 75.6%; in assay [4], 86.5%; in [5], 95.2%; in assay [6], 77%. Further, the results for the remaining activity at 10 µM in [7] and in assay [8] were 112% and 92%, respectively.

On to `CC(C)c1cc(-c2n[nH]c(=O)n2-c2ccc3c(ccn3C)c2)c(O)cc1O` [Ganetespib], for which the remaining activity at 10 µM was determined as 56.7% in assay [9]; 113% in assay [10]; 2.43% in assay [11]; 41.2% in assay [12]; 21.9% in [13].

With `CCNC(=O)c1noc(-c2cc(C(C)C)c(O)cc2O)c1-c1ccc(CN2CCOCC2)cc1` [Luminespib (AUY-922)], the “% Enzyme Activity (relative to DMSO controls)” value in assay [1] came out at 99.21%; in assay [2], 72.56%; in assay [3], 113.14%; in assay [4], 122.22%; in assay [5] it was 92.42%; in assay [6], 85.80%. Moreover, the “% Enzyme Activity (relative to DMSO controls)” value in [7] is on record as 104.63%; in assay [8], 103.84%. Further, the remaining activity at 10 µM in assay [1] was 99.6%; in assay [2], 73%; in [3], 114%; in assay [4], 122%; in assay [5], 94.1%; in assay [6], 86.5%. Also, the results for the remaining activity at 10 µM in [7] and in assay [8] were 110% and 105%, respectively.

As for `CCNC(=O)c1noc(-c2cc(C(C)C)c(O)cc2O)c1-c1ccc(CN2CCOCC2)cc1` [Luminespib], the “% Enzyme Activity (relative to DMSO controls)” value in assay [9] was found to be 87.06%; in [10], 95.95%; in assay [11] it was 6.11%; in [12], 73.14%; in assay [13], 93.84%. Besides, the remaining activity at 10 µM was 88.9% in assay [9]; 96.9% in assay [10]; 6.74% in [11]; 76.2% in assay [12]; 96.4% in assay [13].
